Assay results taken from patent US6294526A, “Use of flavone derivatives for induction of β-lactam-sensitivity of MRSA” (priority 1998, dated 2001).
Converted amounts (≈) assume the structure as drawn. Like-named read-outs stand apart in the source and are kept apart here.

Legend:
[1] = system: MRSA; experiment: antibacterial activity of antibiotics alone and in the presence of apigenin (4 μg/ml), MRSA; type: cell-based, methicillin-resistant Staphylococcus aureus; settings: apigenin 4 μg/ml or less than its MIC
Procedure: (§1) The screening of the present invention may be carried out according to the agar plate dilution method designated by the Japan Society of Chemotherapy (Chemotherapy 29(1), 76-79 (1981)). Mueller-Hinton agar base semi-synthetic medium may be used for a plate culture medium for a sensitivity test together with an inoculating bacteria solution which may be prepared by culturing bacteria to be tested at 37° C. for 20 hours diluted with 8.5% by isotonic sodium chloride solution to 10^6 CFU/ml. Diluted β-lactam solutions are prepared by two times serial dilution. 1 ml of the diluted β-lactam solution and 1 ml of a predetermined concentration of a sample to be tested are added to 8 ml of the plate culture medium for a sensitivity test. To the resultant plate culture medium for sensitivity test, the bacteria are inoculated using a microplanter (SAKUMASEISAKUSYO Co.), cultured for 20 hours at 37° C. followed by assessing for a minimum inhibition concentration (MIC).
(D) Then use of 4 μg/ml of apigenin and other antibiotics at the same time was studied. The antibiotics are penicillin , ampicillin, cephalothin, cefoxitin, cefuroxime, cefotaxime, vancomycin, streptomycin, chloramphenicol, kanamycin, erythromycin, nalixic acid and tetracycline.

[2] = system: MRSA and MSSA; experiment: antibacterial activity (MIC) by agar plate dilution method, MRSA and MSSA strains together; type: cell-based, Staphylococcus aureus; settings: MRSA and MSSA; for antibacterial activity (in words): Table 2; for MIC: Staphylococcus aureus, 20 h, "in each case", read-out: MIC values (text summary of Table 2)
Procedure: as §1, with “(MIC). […]” for “(MIC).”
Antibacterial activity is determined for flavones including flavone, flavonol, flavanone, isoflavone, catechin and calchone, as follows:
(§2) Flavones were dissolved in methanol and the others were dissolved in 0.1 N NaOH. A method for determination of antibacterial activity is, as described above, an agar plate dilution method designated by the Japan Society of Chemotherapy (Chemotherapy 29(1), 76-79 (1981)) to determine MIC value. MIC80 is a concentration at which a strain is prohibited to proliferate by 80% and MIC50 is a concentration at which a strain is prohibited to proliferate by 50%.

[3] = system: MRSA; experiment: antibacterial activity (MIC) by agar plate dilution method, MRSA strains; type: cell-based, methicillin-resistant Staphylococcus aureus; settings: for MIC50: read-out: MIC50
Procedure: as §1
(§3) (A) Antibacterial activities of ether extract from Scutellaria barbata, SB-1 (isolated from Scutellaria barbata), apigenin (authentic sample) and luteolin (authentic sample) were shown in Table 1.
as §2

[4] = system: MSSA; experiment: antibacterial activity (MIC) by agar plate dilution method, MSSA strains; type: cell-based, Methicillin-sensitive Staphylooccus aureus; settings: for MIC50: read-out: MIC50
Procedure: as §1, §3, §2

[5] = Staphylococcus aureus, 20 h, MRSA (20 strains)
[6] = Staphylococcus aureus, 20 h, MSSA (7 strains)

Question: Which results are given for `O=c1cc(-c2ccc(O)cc2)oc2cc(O)cc(O)c12` [Apigenin, apigenin]?
Answer: inhibition of β-lactam resistant MRSA / improvement of antibacterial effect with apigenin (in words) [1]: could improve antibacterial effect of methicillin on MRSA; antibacterial activity (in words) [2]: showed antibacterial activity; MIC ([3]; MRSA strain No. 1): 7.8 µg/mL (≈ 28.9 µM); MIC ([3]; MRSA strain No. 2): 3.9 µg/mL (≈ 14.4 µM); MIC ([3]; MRSA strain No. 3): 7.8 µg/mL (≈ 28.9 µM); MIC ([3]; MRSA strain No. 4): 7.8 µg/mL (≈ 28.9 µM); MIC ([3]; MRSA strain No. 5): 3.9 µg/mL (≈ 14.4 µM); MIC ([3]; MRSA strain No. 6): 3.9 µg/mL (≈ 14.4 µM); MIC ([3]; MRSA strain No. 8): 3.9 µg/mL (≈ 14.4 µM); MIC ([3]; MRSA strain No. 9): 3.9 µg/mL (≈ 14.4 µM); MIC ([3]; MRSA strain No. 9, listed as SB-1): 15.6 µg/mL (≈ 57.7 µM); MIC ([3]; MRSA strain No. 13): 7.8 µg/mL (≈ 28.9 µM); MIC ([3]; MRSA strain No. 13, listed as SB-1): 31.3 µg/mL (≈ 116 µM); MIC ([3]; MRSA strain No. 14): 7.8 µg/mL (≈ 28.9 µM); MIC ([3]; MRSA strain No. 14, listed as SB-1): 31.3 µg/mL (≈ 116 µM); MIC ([3]; MRSA strain No. 15): 7.8 µg/mL (≈ 28.9 µM); MIC ([3]; MRSA strain No. 16): 7.8 µg/mL (≈ 28.9 µM); MIC ([3]; MRSA strain No. 17): 3.9 µg/mL (≈ 14.4 µM); MIC50 [3, 5]: 7.8 µg/mL (≈ 28.9 µM); MIC ([3]; Staphylococcus aureus, MRSA, 20 h, MRSA strain No. 1, read-out: MIC): 15.6 µg/mL (≈ 57.7 µM); MIC ([3]; Staphylococcus aureus, MRSA, 20 h, MRSA strain No. 2, read-out: MIC): 7.8 µg/mL (≈ 28.9 µM); MIC ([3]; Staphylococcus aureus, MRSA, 20 h, MRSA strain No. 3, read-out: MIC): 15.6 µg/mL (≈ 57.7 µM); MIC ([3]; Staphylococcus aureus, MRSA, 20 h, MRSA strain No. 4, read-out: MIC): 15.6 µg/mL (≈ 57.7 µM); MIC ([3]; Staphylococcus aureus, MRSA, 20 h, MRSA strain No. 5, read-out: MIC): 7.8 µg/mL (≈ 28.9 µM); MIC ([3]; Staphylococcus aureus, MRSA, 20 h, MRSA strain No. 6, read-out: MIC): 7.8 µg/mL (≈ 28.9 µM); MIC ([3]; Staphylococcus aureus, MRSA, 20 h, MRSA strain No. 7, read-out: MIC): 3.9 µg/mL (≈ 14.4 µM); MIC ([3]; Staphylococcus aureus, MRSA, 20 h, MRSA strain No. 8, read-out: MIC): 7.8 µg/mL (≈ 28.9 µM); MIC ([3]; Staphylococcus aureus, MRSA, 20 h, MRSA strain No. 10, read-out: MIC): 15.6 µg/mL (≈ 57.7 µM); MIC ([3]; Staphylococcus aureus, MRSA, 20 h, MRSA strain No. 11, read-out: MIC): > 250 µg/mL; MIC ([3]; Staphylococcus aureus, MRSA, 20 h, MRSA strain No. 12, read-out: MIC): > 250 µg/mL; MIC ([3]; Staphylococcus aureus, MRSA, 20 h, MRSA strain No. 15, read-out: MIC): 15.6 µg/mL (≈ 57.7 µM); MIC ([3]; Staphylococcus aureus, MRSA, 20 h, MRSA strain No. 16, read-out: MIC): 15.6 µg/mL (≈ 57.7 µM); MIC ([3]; Staphylococcus aureus, MRSA, 20 h, MRSA strain No. 17, read-out: MIC): 7.8 µg/mL (≈ 28.9 µM); MIC ([3]; Staphylococcus aureus, MRSA, 20 h, MRSA strain No. 18, read-out: MIC): > 250 µg/mL; MIC ([3]; Staphylococcus aureus, MRSA, 20 h, MRSA strain No. 19, read-out: MIC): > 250 µg/mL; MIC ([3]; Staphylococcus aureus, MRSA, 20 h, MRSA strain No. 20, read-out: MIC): 31.3 µg/mL (≈ 116 µM); MIC ([4]; MSSA strain No. 21): > 250 µg/mL; MIC ([4]; MSSA strain No. 22): > 250 µg/mL; MIC ([4]; MSSA strain No. 24): 3.9 µg/mL (≈ 14.4 µM); MIC ([4]; MSSA strain No. 24, listed as SB-1): 31.3 µg/mL (≈ 116 µM); MIC ([4]; MSSA strain No. 25): 3.9 µg/mL (≈ 14.4 µM); MIC ([4]; MSSA strain No. 27): 15.6 µg/mL (≈ 57.7 µM); MIC ([4]; MSSA strain No. 27, listed as SB-1): 31.3 µg/mL (≈ 116 µM); MIC50 [4, 6]: 15.6 µg/mL (≈ 57.7 µM); MIC ([4]; Staphylococcus aureus, MSSA, 20 h, MSSA strain No. 21, read-out: MIC): 250 µg/mL (≈ 925 µM); MIC ([4]; Staphylococcus aureus, MSSA, 20 h, MSSA strain No. 22, read-out: MIC): 250 µg/mL (≈ 925 µM); MIC ([4]; Staphylococcus aureus, MSSA, 20 h, MSSA strain No. 23, read-out: MIC): 15.6 µg/mL (≈ 57.7 µM); MIC ([4]; Staphylococcus aureus, MSSA, 20 h, MSSA strain No. 25, read-out: MIC): 7.8 µg/mL (≈ 28.9 µM); MIC ([4]; Staphylococcus aureus, MSSA, 20 h, MSSA strain No. 26, read-out: MIC): 15.6 µg/mL (≈ 57.7 µM)

Question: For `O=C1C[C@@H](c2ccc(O)c(O)c2)Oc2cc(O)cc(O)c21` [Eriodictyol, eriodictyol], which “antibacterial activity (in words)” value [2] is on record?
Answer: showed antibacterial activity

Question: What about the MIC [2] of the same molecule?
Answer: 250 µg/mL (≈ 867 µM)

Question: What about the MIC50 [3, 5] of the same molecule?
Answer: 250 µg/mL (≈ 867 µM)

Question: And the MIC ([3]; Staphylococcus aureus, MRSA, 20 h, MRSA (20 strains), range over strains, read-out: MIC)?
Answer: 250 µg/mL (≈ 867 µM)

Question: What about the MIC50 [4, 6] of the same molecule?
Answer: 250 µg/mL (≈ 867 µM)

Question: What about the MIC ([4]; Staphylococcus aureus, MSSA, 20 h, MSSA (7 strains), range over strains, read-out: MIC) of the same molecule?
Answer: 250 µg/mL (≈ 867 µM)

Question: What does the source list for `O=c1c(O)c(-c2ccc(O)cc2)oc2cc(O)cc(O)c12` [Kaempferol, kaempferol]?
Answer: antibacterial activity (in words) [2]: showed antibacterial activity; antibacterial activity (in words) ([2]; listed as kaemferol): showed activity; MIC [2]: 250 µg/mL (≈ 873 µM); MIC50 [3, 5]: 250 µg/mL (≈ 873 µM); MIC50 [4, 6]: 250 µg/mL (≈ 873 µM)
